The text below walks through data of ChEMBL document CHEMBL1641488, “Computational approach to the identification of novel Aurora-A inhibitors” (Bioorg Med Chem, 2011).

Assay [1] relates to DU-145. The experiment in a line: Cytotoxicity against human DU145 cells after 4 hrs by MTT assay. The format is functional. Conditions: DU-145, 4 h. (In general: Tetrazolium dyes change colour on reduction, which living cells bring about.)
Assay [2] concerns HT-29. The experiment in a line: Cytotoxicity against human HT-29 cells after 4 hrs by MTT assay. The format is functional. Conditions: HT-29, 4 h; call rule not given here.
Assay [3] deals with DU-145. The assay can be described thus: Cytotoxicity against human DU145 cells at 10 uM after 4 hrs by MTT assay. The format is functional. Conditions: DU-145, 4 h.
The subject of assay [4] is HT-29. The experiment in a line: Cytotoxicity against human HT-29 cells at 10 uM after 4 hrs by MTT assay. The format is functional. To be noted: HT-29, 4 h.
For another assay, the target named is T1, Aurora kinase A (Homo sapiens, UniProt O14965).
T1 sequence (O14965 whole entry): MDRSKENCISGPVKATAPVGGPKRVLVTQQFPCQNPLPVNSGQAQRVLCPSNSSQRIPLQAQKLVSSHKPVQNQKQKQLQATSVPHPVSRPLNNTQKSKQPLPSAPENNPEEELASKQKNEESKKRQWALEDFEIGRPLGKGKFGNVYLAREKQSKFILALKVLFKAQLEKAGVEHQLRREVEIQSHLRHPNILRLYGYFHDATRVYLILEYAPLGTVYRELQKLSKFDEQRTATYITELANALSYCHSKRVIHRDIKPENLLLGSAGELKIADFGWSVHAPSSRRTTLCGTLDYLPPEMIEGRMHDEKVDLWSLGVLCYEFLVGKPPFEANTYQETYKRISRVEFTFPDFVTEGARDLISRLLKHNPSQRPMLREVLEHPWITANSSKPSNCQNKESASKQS
The experiment in a line: Inhibition of human recombinant His-tagged Aurora A kinase expressed in insect cells.

Broadly, the GI50 is the concentration giving 50% growth inhibition. By inhibition is commonly meant the share of the control response that was lost under treatment. In general, IC50 refers to the midpoint of a concentration-inhibition curve.

Bounds are passed on as bounds.

For `COc1ccc(C(=O)Nc2ccccc2C(=O)NC(Cc2ccc(O)cc2)C(=O)Nc2ccc(C)cc2C)cc1` (stereo unspecified), the 50% growth inhibitory concentration (GI50) with DU-145 [1] turned out to be 2.73 µM; in the assay on HT-29 [2] it was 5.23 µM. For the same compound, the inhibition at 10 µM in the assay on DU-145 [3] was determined as 90%; in the assay on HT-29 [4] it was 73%. The IC50 at Aurora kinase A (read-out: IC50) was determined as 5.09 µM.

With `CC(=O)Nc1cccc(NC(=O)C(=O)NCCc2sc(-c3ccc(Cl)cc3)nc2C)c1`, the GI50 in the assay on DU-145 [1] was above 100 µM; with HT-29 [2], 16.5 µM. Also, the inhibition at 10 µM was found to be 32% in the assay on DU-145 [3] and 54% with HT-29 [4]. The half-maximal inhibitory concentration (IC50) on Aurora kinase A (read-out: IC50) is above 100 µM.

For the compound `COc1ccc2cc(C(=O)C3CCC(C(C)C(=O)NCCC4=CCCCC4)CC3)[nH]c2c1` (stereo unspecified), the GI50 was determined as 15.9 µM in the assay with DU-145 [1] and 9.36 µM in the assay on HT-29 [2]. Besides, the inhibition at 10 µM amounted to 49% in the assay with DU-145 [3] and 68% in the assay with HT-29 [4]. The half-inhibitory concentration (IC50) on Aurora kinase A (read-out: IC50) stood at 86.2 µM.

Regarding `Cc1ccc(Nc2cc(Nc3ccc(NS(=O)(=O)c4ccccc4F)cc3)nc(C)n2)cc1`, the GI50 with DU-145 [1] came out at 23.4 µM; in the assay with HT-29 [2], 5.12 µM. Besides, the inhibition at 10 µM worked out at 38% with DU-145 [3] and 83% in the assay with HT-29 [4]. Also, the IC50 result on Aurora kinase A was “Not Active”.

Consider `Cc1ccc(NC(=O)C(Cc2ccc(O)cc2)NC(=O)c2ccccc2N)cc1` (stereo unspecified), for which the figures for the 50% growth inhibitory concentration (GI50) with DU-145 [1] and in the assay with HT-29 [2] were 3.93 µM and 9.48 µM, respectively. The inhibition at 10 µM in the assay with DU-145 [3] turned out to be 87%; in the assay on HT-29 [4], 54%. The half-inhibitory concentration (IC50) on Aurora kinase A (read-out: IC50) stood at 11.9 µM.

On to `CCOc1ccc2nc(NC3=NC(=O)CC(c4ccc(OC)cc4)N3)nc(C)c2c1` (stereo unspecified), for which the 50% growth inhibitory concentration (GI50) in the assay with DU-145 [1] amounted to 4.26 µM; with HT-29 [2], 7.08 µM. In addition, the values for the inhibition at 10 µM in the assay with DU-145 [3] and in the assay with HT-29 [4] were 84% and 85%, respectively. Moreover, on Aurora kinase A, the IC50 result was “Not Active”.

In the case of `COc1ccc(-c2cc(C(=O)Nc3ccc(C)cc3C)c3c(-c4ccccc4)[nH]nc3n2)cc1OC`, the figures for the GI50 with DU-145 [1] and with HT-29 [2] were 2.06 µM and 1.65 µM, respectively. Besides, the inhibition at 10 µM in the assay on DU-145 [3] came to 92%; in the assay with HT-29 [4] it was 91%. Moreover, the IC50 at Aurora kinase A (read-out: IC50) was above 100 µM.

Take `COc1ccc2sc(SCC(=O)Nc3ncc(Br)s3)nc2c1`: the GI50 stood at 17 µM in the assay with DU-145 [1] and 2.04 µM in the assay with HT-29 [2]. Further, the results for the inhibition at 10 µM in the assay on DU-145 [3] and in the assay with HT-29 [4] were 49% and 89%, respectively. For the same compound, the half-inhibitory concentration (IC50) on Aurora kinase A (read-out: IC50) is above 100 µM.

On to `CCOc1ccc2nc(Nc3nc(O)c4ccccc4n3)nc(C)c2c1`, for which the values for the GI50 in the assay on DU-145 [1] and with HT-29 [2] were 36.9 µM and 29.1 µM, respectively. The values for the inhibition at 10 µM in the assay on DU-145 [3] and with HT-29 [4] were 80% and 89%, respectively. Moreover, the IC50 on Aurora kinase A (read-out: IC50) was determined as 16.7 µM.

Take `Cc1ccc(-c2nnc(Nc3ccc(Oc4ncccc4-c4c[nH]nc4N)cc3)c3ccccc23)cc1`: the IC50 at Aurora kinase A (read-out: IC50) came out at 0.06 µM.

Regarding `COc1ccc(OCC(O)Cn2c(N/N=C/c3ccccc3O)nc3c2c(=O)[nH]c(=O)n3C)cc1` (stereo unspecified), the GI50 was found to be 27.7 µM with DU-145 [1] and 7.94 µM in the assay with HT-29 [2]. Besides, the inhibition at 10 µM in the assay with DU-145 [3] was 23%; with HT-29 [4], 58%. In addition, the half-inhibitory concentration (IC50) at Aurora kinase A (read-out: IC50) is 18.4 µM.

As to `CCOc1ccc2cc(CNc3cc(OC)cc(OC)c3)c(=O)[nH]c2c1` [ASN07410292], the values for the GI50 with DU-145 [1] and with HT-29 [2] were 5.81 µM and 3.64 µM, respectively. Besides, the results for the inhibition at 10 µM with DU-145 [3] and with HT-29 [4] were 80% and 88%, respectively. Also, the IC50 entry on Aurora kinase A is reported as “Not Active”.

Turning to `COc1ccc(N(CC(=O)Nc2cc(Cl)ccc2C)S(=O)(=O)c2c(C)n[nH]c2C)cc1`, the GI50 amounted to 5.98 µM in the assay with DU-145 [1] and 3.98 µM in the assay with HT-29 [2]. For the same compound, the figures for the inhibition at 10 µM with DU-145 [3] and in the assay on HT-29 [4] were 74% and 87%, respectively. Besides, the half-maximal inhibitory concentration (IC50) entry on Aurora kinase A is recorded as “Not Active”.

As to `CCOc1ccc(NC(=O)Cn2c(Nc3ccc(OCC)cc3)nc3c2c(=O)[nH]c(=O)n3C)cc1`, the 50% growth inhibitory concentration (GI50) was above 100 µM in the assay with DU-145 [1] and 7.91 µM in the assay on HT-29 [2]. In addition, the inhibition at 10 µM in the assay with DU-145 [3] was determined as 57%; with HT-29 [4], 62%. Also, the IC50 on Aurora kinase A (read-out: IC50) was determined as 98.7 µM.

Consider `CCCOc1ccc(CNC(=O)c2[nH]c3cc(C)ccc3c2Sc2ccccc2)cc1`, for which the results for the GI50 in the assay with DU-145 [1] and in the assay with HT-29 [2] were 26 µM and 5.36 µM, respectively. Besides, the inhibition at 10 µM is 34% with DU-145 [3] and 64% with HT-29 [4]. For the same compound, at Aurora kinase A, the half-maximal inhibitory concentration (IC50) entry is “Not Active”.

Take `CCOc1ccc(NC(=S)N(CCN(CC)CC)Cc2cc3cc4c(cc3[nH]c2=O)OCCO4)cc1` [ASN03776845]: the results for the concentration for 50% growth inhibition (GI50) in the assay on DU-145 [1] and in the assay on HT-29 [2] were 14.1 µM and 6.33 µM, respectively. Further, the inhibition at 10 µM with DU-145 [3] came out at 49%; in the assay with HT-29 [4], 78%. Moreover, the 50% inhibitory concentration (IC50) entry at Aurora kinase A is given as “Not Active”.
